Measurements from publication PMC8222254, “Self-assembly of an anion receptor with metal-dependent kinase inhibition and potent in vitro anti-cancer properties” (Nature Communications, 2021).
Several values for one entry are separate records, joined by “and”; a condition that tells them apart may be missing. Identical values can stand only once.

Columns and labels:
Test in all cases: Kinase inhibition screen, cell-free 33P ATP assay at 10 μM
Format in all cases: biochemical
[1] = target: T1, 140 purified human kinases (Homo sapiens, UniProt O75385)
T1 sequence (O75385 1-1050): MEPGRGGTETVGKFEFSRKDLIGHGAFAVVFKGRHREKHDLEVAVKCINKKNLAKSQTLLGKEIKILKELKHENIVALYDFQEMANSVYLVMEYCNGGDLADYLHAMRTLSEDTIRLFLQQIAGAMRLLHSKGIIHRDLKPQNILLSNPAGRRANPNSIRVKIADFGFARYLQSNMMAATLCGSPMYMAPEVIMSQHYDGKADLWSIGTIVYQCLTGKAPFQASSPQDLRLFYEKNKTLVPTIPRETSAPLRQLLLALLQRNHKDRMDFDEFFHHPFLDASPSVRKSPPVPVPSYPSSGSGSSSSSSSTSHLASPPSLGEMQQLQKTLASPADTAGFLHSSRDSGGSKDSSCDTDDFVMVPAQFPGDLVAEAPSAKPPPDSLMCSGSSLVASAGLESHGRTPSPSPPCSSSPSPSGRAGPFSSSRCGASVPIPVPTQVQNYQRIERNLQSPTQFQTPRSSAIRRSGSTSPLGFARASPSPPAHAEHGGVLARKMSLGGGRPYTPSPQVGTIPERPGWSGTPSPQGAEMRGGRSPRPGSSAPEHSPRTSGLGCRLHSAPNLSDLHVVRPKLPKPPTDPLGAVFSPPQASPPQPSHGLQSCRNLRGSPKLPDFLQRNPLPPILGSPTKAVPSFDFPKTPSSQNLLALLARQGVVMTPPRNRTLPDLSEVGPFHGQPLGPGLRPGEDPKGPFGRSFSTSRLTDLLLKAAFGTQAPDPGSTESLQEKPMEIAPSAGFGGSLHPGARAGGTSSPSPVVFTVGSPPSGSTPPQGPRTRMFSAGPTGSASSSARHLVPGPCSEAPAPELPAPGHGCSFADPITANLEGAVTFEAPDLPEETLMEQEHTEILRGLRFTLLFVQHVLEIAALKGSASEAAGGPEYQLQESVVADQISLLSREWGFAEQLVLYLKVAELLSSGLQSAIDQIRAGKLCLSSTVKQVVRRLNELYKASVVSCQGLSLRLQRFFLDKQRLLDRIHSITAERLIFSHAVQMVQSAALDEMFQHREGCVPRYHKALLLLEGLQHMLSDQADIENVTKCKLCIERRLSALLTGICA
Protocol: (§1) [L2Cu3]^6+ and [L2Zn3]^6+ were submitted to the MRC Protein Phosphorylation and Ubiquitination Unit International Centre for Kinase Profiling (University of Dundee) and tested in duplicate (at 10 μM) against a series of 140 purified human kinases in a cell-free kinase assay using ^33P ATP[55],[56]. The kinase gene IDs from the screen were then translated into common IDs (HGNC symbol) using biomaRt package[57],[58] in R[59] and R Studio[60] and used as input to the KinMap programme.

[2] = target: T2, 140 purified human kinases (Homo sapiens, UniProt P53778); conditions: p38g MAPK
T2 sequence (P53778 1-367): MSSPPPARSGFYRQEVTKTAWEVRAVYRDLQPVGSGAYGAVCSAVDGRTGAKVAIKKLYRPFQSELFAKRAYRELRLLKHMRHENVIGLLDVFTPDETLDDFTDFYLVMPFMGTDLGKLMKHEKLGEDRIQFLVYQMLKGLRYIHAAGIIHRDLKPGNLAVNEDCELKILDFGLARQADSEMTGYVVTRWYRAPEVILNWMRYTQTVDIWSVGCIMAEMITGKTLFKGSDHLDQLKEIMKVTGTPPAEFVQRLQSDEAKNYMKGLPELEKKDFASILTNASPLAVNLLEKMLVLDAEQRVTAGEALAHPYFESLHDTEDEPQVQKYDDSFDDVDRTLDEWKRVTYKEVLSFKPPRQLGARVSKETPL
Protocol: as §1

[3] = target: T3, 140 purified human kinases (Homo sapiens, UniProt P54753)
T3 sequence (P54753 34-998): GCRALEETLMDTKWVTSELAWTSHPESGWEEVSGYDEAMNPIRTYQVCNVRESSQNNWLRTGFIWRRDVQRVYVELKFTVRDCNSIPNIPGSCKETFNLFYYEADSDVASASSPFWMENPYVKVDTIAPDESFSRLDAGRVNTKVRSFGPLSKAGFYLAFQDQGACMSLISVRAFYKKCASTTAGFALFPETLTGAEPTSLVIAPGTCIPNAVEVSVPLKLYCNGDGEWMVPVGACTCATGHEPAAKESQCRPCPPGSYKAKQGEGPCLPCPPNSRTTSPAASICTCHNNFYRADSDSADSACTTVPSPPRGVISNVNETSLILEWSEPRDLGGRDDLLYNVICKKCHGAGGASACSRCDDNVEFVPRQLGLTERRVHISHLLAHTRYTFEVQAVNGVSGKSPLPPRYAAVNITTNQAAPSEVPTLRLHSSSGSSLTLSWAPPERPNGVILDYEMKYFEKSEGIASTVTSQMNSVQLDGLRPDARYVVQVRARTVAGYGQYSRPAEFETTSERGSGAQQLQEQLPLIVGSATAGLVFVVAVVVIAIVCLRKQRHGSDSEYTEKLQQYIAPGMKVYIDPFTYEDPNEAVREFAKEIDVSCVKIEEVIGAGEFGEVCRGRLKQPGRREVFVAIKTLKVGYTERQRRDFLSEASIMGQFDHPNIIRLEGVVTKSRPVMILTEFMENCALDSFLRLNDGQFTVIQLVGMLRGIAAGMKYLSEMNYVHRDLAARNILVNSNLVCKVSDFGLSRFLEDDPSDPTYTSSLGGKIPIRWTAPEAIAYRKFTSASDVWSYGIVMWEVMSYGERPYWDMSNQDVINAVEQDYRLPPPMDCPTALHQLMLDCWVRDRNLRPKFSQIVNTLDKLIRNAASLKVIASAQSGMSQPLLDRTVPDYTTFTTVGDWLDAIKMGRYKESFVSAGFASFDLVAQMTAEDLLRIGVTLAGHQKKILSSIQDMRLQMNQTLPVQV
Protocol: as §1

[4] = target: 140 purified human kinases (Homo sapiens, UniProt Q02750)
Protocol: as §1

Chain of 140 purified human kinases (Homo sapiens, UniProt Q02750) (Q02750 whole entry): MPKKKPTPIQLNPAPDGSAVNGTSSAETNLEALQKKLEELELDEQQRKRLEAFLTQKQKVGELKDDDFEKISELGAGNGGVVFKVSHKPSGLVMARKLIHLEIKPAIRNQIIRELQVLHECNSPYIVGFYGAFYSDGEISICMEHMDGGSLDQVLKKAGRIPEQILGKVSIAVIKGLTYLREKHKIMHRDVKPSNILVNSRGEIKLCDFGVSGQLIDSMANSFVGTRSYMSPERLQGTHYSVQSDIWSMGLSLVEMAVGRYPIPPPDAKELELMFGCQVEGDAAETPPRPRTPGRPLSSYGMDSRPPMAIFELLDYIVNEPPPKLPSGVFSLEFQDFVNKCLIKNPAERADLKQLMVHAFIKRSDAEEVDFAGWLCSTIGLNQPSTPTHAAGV

## CC(=O)[O-].CC(=O)[O-].CC(=O)[O-].CC(=O)[O-].CC(=O)[O-].CC(=O)[O-].[Zn+2].[Zn+2].[Zn+2].c1ccc(-c2csc(NCCN(CCNc3nc(-c4ccccn4)cs3)CCNc3nc(-c4ccccn4)cs3)n2)nc1.c1ccc(-c2csc(NCCN(CCNc3nc(-c4ccccn4)cs3)CCNc3nc(-c4ccccn4)cs3)n2)nc1 [[L2Zn3]6+]
[1]; ULK1
  % Inhibition, Mean: 30%
  mean % activity: 70%
[1]; ULK1, duplicate runs
  % activity: 58% and 82%
[2]
  % Activation, Mean value: 5%
  % Inhibition, Mean: -5%
  % Inhibition, Run 1 / Run 2: -3.4% and -6.5%
  mean % activity: 105%
[2]; duplicate runs
  % activity: 103% and 107%
[3]; EPH-B3
  % Inhibition, Mean: 51%
  % Inhibition, Run 1 / Run 2: 59% and 44%
  mean % activity: 49%
[3]; EPH-B3, duplicate runs
  % activity: 41% and 56%
[4]; MKK1
  % Activation, Mean value: 3%
  % Inhibition, Mean: -3%
  % Inhibition, Run 1 / Run 2: -3%
  mean % activity: 103%
[4]; MKK1, duplicate runs
  % activity: 103%

## [Cu+2].[Cu+2].[Cu+2].c1ccc(-c2csc(NCCN(CCNc3nc(-c4ccccn4)cs3)CCNc3nc(-c4ccccn4)cs3)n2)nc1.c1ccc(-c2csc(NCCN(CCNc3nc(-c4ccccn4)cs3)CCNc3nc(-c4ccccn4)cs3)n2)nc1 [[L2Cu3]6+]
[1]; ULK1
  % Inhibition Run 1: 75.8%
  % Inhibition Run 2: 76.3%
  % Inhibition, Mean: 76%
  mean % activity: 24%
[1]; ULK1, Run 1
  % activity: 24.2%
[1]; ULK1, Run 2
  % activity: 23.7%
[2]
  % Activation, Mean value: 3.55%
  % Inhibition Run 1: -1.3%
  % Inhibition Run 2: -5.8%
  % Inhibition, Mean: -3.55%
  mean % activity: 104%
[2]; Run 1
  % activity: 101.3%
[2]; Run 2
  % activity: 105.8%
[3]; EPH-B3
  % Inhibition Run 1: 12.5%
  % Inhibition Run 2: 19.2%
  % Inhibition, Mean: 16%
  mean % activity: 84%
[3]; EPH-B3, Run 1
  % activity: 87.5%
[3]; EPH-B3, Run 2
  % activity: 80.8%
[4]; MKK1
  % Inhibition Run 1: 34%
  % Inhibition Run 2: 8.9%
  % Inhibition, Mean: 21%
  mean % activity: 79%
[4]; MKK1, Run 1
  % activity: 66%
[4]; MKK1, Run 2
  % activity: 91.1%
